Like-named read-outs stand apart in the source and are kept apart here.
Assays:
[1] = biological target: T1, Agrocybe aegerita lectin 2 (AAL2) (Cyclocybe aegerita, UniProt H6CS64); assay: crystal structure of the complex ([…] Å) and SPR steady-state affinity; type: binding
T1 construct: gene aal-2; recombinant AAL2 without any tag, expressed in E. coli BL21 (DE3); 407 amino acid residues
T1 sequence (H6CS64 1-407): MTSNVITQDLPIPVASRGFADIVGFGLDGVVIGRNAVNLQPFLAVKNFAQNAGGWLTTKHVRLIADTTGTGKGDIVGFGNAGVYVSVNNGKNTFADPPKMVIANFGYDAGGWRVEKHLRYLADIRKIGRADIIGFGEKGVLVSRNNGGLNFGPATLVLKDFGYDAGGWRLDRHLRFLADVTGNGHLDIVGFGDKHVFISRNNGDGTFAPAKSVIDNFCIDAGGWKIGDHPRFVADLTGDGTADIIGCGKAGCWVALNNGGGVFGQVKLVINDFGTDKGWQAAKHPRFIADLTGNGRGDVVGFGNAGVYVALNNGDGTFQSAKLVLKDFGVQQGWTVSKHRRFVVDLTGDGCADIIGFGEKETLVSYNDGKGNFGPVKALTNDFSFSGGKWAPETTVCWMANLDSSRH

[2] = biological target: T1, Agrocybe aegerita lectin 2 (AAL2); assay: as above; type: binding; remark: listed apart in the source

Kd [1] [µM]	Kd [2] [µM]	Compound
28.3	–	CC(=O)N[C@@H]1[C@@H](O)[C@H](O)[C@@H](CO)O[C@H]1O [GlcNAc]
–	41.7	CC(=O)N[C@H]1[C@H](O[C@H]2[C@@H](O)[C@@H](CO)O[C@@H](O[C@H]3[C@H](O)[C@@H](NC(C)=O)C(O)O[C@@H]3CO)[C@@H]2O)O[C@H](CO)[C@@H](O)[C@@H]1O (some centres unmarked) [GlcNAcβ1-3Galβ1-4GlcNAc]

From publication PMC4483166, “Structural Basis of Specific Recognition of Non-Reducing Terminal N-Acetylglucosamine by an Agrocybe aegerita Lectin” (PLoS ONE, 2015)
